# US11491120B2, “Pharmacological prophylactics against stress-induced affective disorders in females” (The Trustees of Columbia University in the City of New York, priority 2017, dated 2022)
# Entries after “also recorded” stand apart in the source; their conditions may differ.
# Legend:
# [1] = test system: male mice; test: Prophylactic efficacy in male mice (immobility in the forced swim test); format: in vivo, mouse
# [2] = test system: female 129S6/SvEv mice; test: Forced swim test (FST), immobility time, after stress
# [3] = 0.025 mg/kg, 1 week prophylactic drug
# [4] = 0.025 mg/kg, 1 week prophylactic drug, learned helplessness stress
# [5] = 0.025 mg/kg, 3 day prophylactic drug
# [6] = 0.075 mg/kg, 1 week prophylactic drug
# [7] = 0.1 mg/kg, 1 week prophylactic drug
# [8] = 0.3 mg/kg, 1 week prophylactic drug
# [9] = 2.5 mg/kg, 1 week prophylactic drug
# [10] = 10 mg/kg, 1 week prophylactic drug
# [11] = Forced Swim Test Day 1, Dunnett test Sal vs. drug (0.025), 1 week prophylactic drug
# [12] = Forced Swim Test Day 1, Dunnett test Sal vs. drug (0.075), 1 week prophylactic drug
# [13] = Forced Swim Test Day 1, Dunnett test Sal vs. drug (0.1), 1 week prophylactic drug
structure (smiles),measurement,setting,value
"N[C@@]1(c2ccccc2Cl)CCC[C@@H](O)C1=O [(2R,6R)-HNK, (2R,6R)-hydroxynorketamine]",Prophylactically effective dose in males,[1],0.075 mg/kg
same,"* (significance), Sal vs. drug, Dunnett test: Immobility Time (min 1-6), Forced Swim Test Day 2",[2]; [3],*** (*** p<0.0001)
same,"* (significance), Sal vs. drug, Dunnett test: Immobility Time (min 4), Forced Swim Test Day 2",[2]; [3],* (* p<0.05)
same,"* (significance), Sal vs. drug, Dunnett test: Immobility Time (min 5), Forced Swim Test Day 2",[2]; [3],* (* p<0.05)
same,"* (significance), Sal vs. drug, Dunnett test: Immobility Time Average (min 3-6), Forced Swim Test Day 2",[2]; [3],* (* p<0.05)
same,"p, Sal vs. drug, Dunnett test: Immobility Time (min 1), Forced Swim Test Day 2",[2]; [3],0.0833
same,"p, Sal vs. drug, Dunnett test: Immobility Time (min 1-6), Forced Swim Test Day 2",[2]; [3],0.0001
same,"p, Sal vs. drug, Dunnett test: Immobility Time (min 2), Forced Swim Test Day 2",[2]; [3],0.5867
same,"p, Sal vs. drug, Dunnett test: Immobility Time (min 4), Forced Swim Test Day 2",[2]; [3],0.0383
same,"p, Sal vs. drug, Dunnett test: Immobility Time (min 5), Forced Swim Test Day 2",[2]; [3],0.0346
same,"p, Sal vs. drug, Dunnett test: Immobility Time (min 6), Forced Swim Test Day 2",[2]; [3],0.2356
same,"p, Sal vs. drug, Dunnett test: Immobility Time Average (min 3-6), Forced Swim Test Day 2",[2]; [3],0.0229
same,"* (significance), Sal vs. drug, Fisher's PLSD: Immobility Time Average (min 3-6), Forced Swim Test Day 2",[2]; [4],*** (*** p<0.0001)
same,"P, Sal vs. drug, Fisher's PLSD: Immobility Time Average (min 3-6), Forced Swim Test Day 2",[2]; [4],<0.0001
same,"p, Sal vs. drug, t-test: Immobility Time Average (min 3-6), Forced Swim Test Day 2","[2]; 0.025 mg/kg, 24 hour prophylactic drug",0.1367
same,Immobility on FST Day 2 vs saline,"[2]; 0.025 mg/kg, 24 hours before CFC, female mice",not prophylactically effective when administered 24 h before a stressor; also recorded: did not alter immobility in the FST
same,"* (significance), Sal vs. drug, Fisher's PLSD: Immobility Time (min 1-6), Forced Swim Test Day 2",[2]; [5],*** (*** p<0.0001)
same,"* (significance), Sal vs. drug, Fisher's PLSD: Immobility Time Average (min 3-6), Forced Swim Test Day 2",[2]; [5],** (** p<0.01)
same,"p, Sal vs. drug, Fisher's PLSD: Immobility Time (min 1-6), Forced Swim Test Day 2",[2]; [5],<0.0001
same,"p, Sal vs. drug, Fisher's PLSD: Immobility Time Average (min 3-6), Forced Swim Test Day 2",[2]; [5],0.0046
same,"p, Sal vs. drug, Dunnett test: Immobility Time (min 1), Forced Swim Test Day 2",[2]; [6],0.4238
same,"p, Sal vs. drug, Dunnett test: Immobility Time (min 1-6), Forced Swim Test Day 2",[2]; [6],0.5537
same,"p, Sal vs. drug, Dunnett test: Immobility Time (min 2), Forced Swim Test Day 2",[2]; [6],0.9312
same,"p, Sal vs. drug, Dunnett test: Immobility Time (min 4), Forced Swim Test Day 2",[2]; [6],0.9993
same,"p, Sal vs. drug, Dunnett test: Immobility Time (min 5), Forced Swim Test Day 2",[2]; [6],>0.9999
same,"p, Sal vs. drug, Dunnett test: Immobility Time (min 6), Forced Swim Test Day 2",[2]; [6],0.9760
same,"p, Sal vs. drug, Dunnett test: Immobility Time Average (min 3-6), Forced Swim Test Day 2",[2]; [6],0.8615
same,"p, Sal vs. drug, Dunnett test: Immobility Time (min 1), Forced Swim Test Day 2",[2]; [7],0.9995
same,"p, Sal vs. drug, Dunnett test: Immobility Time (min 1-6), Forced Swim Test Day 2",[2]; [7],0.9871
same,"p, Sal vs. drug, Dunnett test: Immobility Time (min 2), Forced Swim Test Day 2",[2]; [7],0.2508
same,"p, Sal vs. drug, Dunnett test: Immobility Time (min 4), Forced Swim Test Day 2",[2]; [7],0.9994
same,"p, Sal vs. drug, Dunnett test: Immobility Time (min 5), Forced Swim Test Day 2",[2]; [7],0.8037
same,"p, Sal vs. drug, Dunnett test: Immobility Time (min 6), Forced Swim Test Day 2",[2]; [7],0.8172
same,"p, Sal vs. drug, Dunnett test: Immobility Time Average (min 3-6), Forced Swim Test Day 2",[2]; [7],0.9994
same,"p, Sal vs. drug, Dunnett test: Immobility Time (min 1), Forced Swim Test Day 2",[2]; [8],0.9998
same,"p, Sal vs. drug, Dunnett test: Immobility Time (min 1-6), Forced Swim Test Day 2",[2]; [8],0.9996
same,"p, Sal vs. drug, Dunnett test: Immobility Time (min 2), Forced Swim Test Day 2",[2]; [8],0.9999
same,"p, Sal vs. drug, Dunnett test: Immobility Time (min 4), Forced Swim Test Day 2",[2]; [8],0.9883
same,"p, Sal vs. drug, Dunnett test: Immobility Time (min 5), Forced Swim Test Day 2",[2]; [8],0.9991
same,"p, Sal vs. drug, Dunnett test: Immobility Time (min 6), Forced Swim Test Day 2",[2]; [8],0.9991
same,"p, Sal vs. drug, Dunnett test: Immobility Time Average (min 3-6), Forced Swim Test Day 2",[2]; [8],0.9994
same,"p, Sal vs. drug, Dunnett test: Immobility Time (min 1), Forced Swim Test Day 2",[2]; [9],0.4807
same,"p, Sal vs. drug, Dunnett test: Immobility Time (min 1-6), Forced Swim Test Day 2",[2]; [9],0.6589
same,"p, Sal vs. drug, Dunnett test: Immobility Time (min 2), Forced Swim Test Day 2",[2]; [9],0.9193
same,"p, Sal vs. drug, Dunnett test: Immobility Time (min 4), Forced Swim Test Day 2",[2]; [9],0.9991
same,"p, Sal vs. drug, Dunnett test: Immobility Time (min 5), Forced Swim Test Day 2",[2]; [9],>0.9999
same,"p, Sal vs. drug, Dunnett test: Immobility Time (min 6), Forced Swim Test Day 2",[2]; [9],0.9995
same,"p, Sal vs. drug, Dunnett test: Immobility Time Average (min 3-6), Forced Swim Test Day 2",[2]; [9],0.9507
same,"p, Sal vs. drug, Dunnett test: Immobility Time (min 1), Forced Swim Test Day 2",[2]; [10],0.9997
same,"p, Sal vs. drug, Dunnett test: Immobility Time (min 1-6), Forced Swim Test Day 2",[2]; [10],0.9950
same,"p, Sal vs. drug, Dunnett test: Immobility Time (min 2), Forced Swim Test Day 2",[2]; [10],0.9993
same,"p, Sal vs. drug, Dunnett test: Immobility Time (min 4), Forced Swim Test Day 2",[2]; [10],0.9955
same,"p, Sal vs. drug, Dunnett test: Immobility Time (min 5), Forced Swim Test Day 2",[2]; [10],0.9991
same,"p, Sal vs. drug, Dunnett test: Immobility Time (min 6), Forced Swim Test Day 2",[2]; [10],0.9999
same,"p, Sal vs. drug, Dunnett test: Immobility Time Average (min 3-6), Forced Swim Test Day 2",[2]; [10],0.9997
same,"* (significance), Immobility Time (min 1-6)",[2]; [11],** (** p<0.01)
same,"p, Immobility Time (min 1)",[2]; [11],0.9996
same,"p, Immobility Time (min 1-6)",[2]; [11],0.0090
same,"p, Immobility Time (min 3)",[2]; [11],0.9637
same,"p, Immobility Time (min 4)",[2]; [11],0.8106
same,"p, Immobility Time (min 5)",[2]; [11],0.8892
same,"p, Immobility Time (min 6)",[2]; [11],0.6406
same,"p, Immobility Time Average (min 3-6)",[2]; [11],0.7004
same,"* (significance), Immobility Time (min 1)",[2]; [12],** (** p<0.01)
same,"p, Immobility Time (min 1)",[2]; [12],0.0017
same,"p, Immobility Time (min 1-6)",[2]; [12],0.2188
same,"p, Immobility Time (min 3)",[2]; [12],0.9250
same,"p, Immobility Time (min 4)",[2]; [12],0.9750
same,"p, Immobility Time (min 5)",[2]; [12],0.8877
same,"p, Immobility Time (min 6)",[2]; [12],0.9994
same,"p, Immobility Time Average (min 3-6)",[2]; [12],0.9526
same,"p, Immobility Time (min 1)",[2]; [13],0.9996
same,"p, Immobility Time (min 1-6)",[2]; [13],0.0673
same,"p, Immobility Time (min 3)",[2]; [13],0.4888
same,"p, Immobility Time (min 4)",[2]; [13],0.3257
same,"p, Immobility Time (min 5)",[2]; [13],0.2856
